Holding throughout (experiment): Dundee kinase panel
Common to all, as to format: biochemical
Conditions in all cases: for remaining activity at 1 µM: read-out: residual activity

The target of assay [1] is T1, EPH-B1 (Homo sapiens, UniProt P54762).
T1 construct: lines 1-140) and Reaction Biology
T1 sequence (P54762 18-984): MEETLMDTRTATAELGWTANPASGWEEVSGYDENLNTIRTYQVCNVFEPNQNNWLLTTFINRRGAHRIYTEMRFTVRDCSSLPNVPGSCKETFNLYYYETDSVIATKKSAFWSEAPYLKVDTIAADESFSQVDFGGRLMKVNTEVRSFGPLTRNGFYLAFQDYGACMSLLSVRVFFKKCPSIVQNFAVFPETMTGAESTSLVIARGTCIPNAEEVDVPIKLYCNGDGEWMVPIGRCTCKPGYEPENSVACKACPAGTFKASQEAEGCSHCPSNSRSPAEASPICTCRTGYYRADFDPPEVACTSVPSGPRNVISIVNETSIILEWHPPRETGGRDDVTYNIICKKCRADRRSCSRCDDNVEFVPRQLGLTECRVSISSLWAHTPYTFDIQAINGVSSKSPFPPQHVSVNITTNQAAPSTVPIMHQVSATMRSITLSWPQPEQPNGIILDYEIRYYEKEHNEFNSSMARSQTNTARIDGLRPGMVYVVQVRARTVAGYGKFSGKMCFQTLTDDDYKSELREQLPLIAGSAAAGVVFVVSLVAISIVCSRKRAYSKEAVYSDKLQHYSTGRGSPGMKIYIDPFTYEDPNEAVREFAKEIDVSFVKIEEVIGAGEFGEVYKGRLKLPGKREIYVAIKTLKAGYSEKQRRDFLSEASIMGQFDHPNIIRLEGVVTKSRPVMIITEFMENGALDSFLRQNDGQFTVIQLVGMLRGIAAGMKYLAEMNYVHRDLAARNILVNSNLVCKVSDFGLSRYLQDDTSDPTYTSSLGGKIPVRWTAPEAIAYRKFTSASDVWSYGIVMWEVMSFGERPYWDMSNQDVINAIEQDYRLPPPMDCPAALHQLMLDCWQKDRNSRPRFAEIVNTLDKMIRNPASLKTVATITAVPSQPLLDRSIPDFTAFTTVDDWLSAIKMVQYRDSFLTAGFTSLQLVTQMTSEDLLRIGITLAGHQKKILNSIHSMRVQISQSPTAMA
The method, then:
(§1) Compounds were screened at 1 μM. For key hits, pIC50 values were then determined by HTRF as above. […] Stability in mouse and human liver microsomes was determined by Cyprotex.

The target in assay [2] is T2, MSK1 (Homo sapiens, UniProt O75582).
T2 construct: lines 1-140) and Reaction Biology
T2 sequence (O75582 whole entry): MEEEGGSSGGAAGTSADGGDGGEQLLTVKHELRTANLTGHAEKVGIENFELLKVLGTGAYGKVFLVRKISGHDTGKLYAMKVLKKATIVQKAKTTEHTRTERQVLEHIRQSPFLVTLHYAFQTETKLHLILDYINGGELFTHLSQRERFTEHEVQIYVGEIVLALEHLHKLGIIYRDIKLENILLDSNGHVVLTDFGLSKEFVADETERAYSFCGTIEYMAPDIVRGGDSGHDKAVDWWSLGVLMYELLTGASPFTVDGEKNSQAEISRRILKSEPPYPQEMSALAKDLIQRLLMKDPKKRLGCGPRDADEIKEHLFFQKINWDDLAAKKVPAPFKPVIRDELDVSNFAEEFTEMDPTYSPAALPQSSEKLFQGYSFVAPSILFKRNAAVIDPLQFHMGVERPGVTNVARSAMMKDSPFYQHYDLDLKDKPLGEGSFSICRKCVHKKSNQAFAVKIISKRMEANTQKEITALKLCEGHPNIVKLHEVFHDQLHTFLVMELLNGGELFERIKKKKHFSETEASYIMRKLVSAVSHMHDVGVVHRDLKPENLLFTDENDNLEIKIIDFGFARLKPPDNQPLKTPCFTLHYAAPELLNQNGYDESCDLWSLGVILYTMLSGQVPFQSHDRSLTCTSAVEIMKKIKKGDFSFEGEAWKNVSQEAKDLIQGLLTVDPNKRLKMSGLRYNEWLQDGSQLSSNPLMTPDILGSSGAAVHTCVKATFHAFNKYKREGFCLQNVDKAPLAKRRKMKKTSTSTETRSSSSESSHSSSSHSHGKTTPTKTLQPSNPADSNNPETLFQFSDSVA
The method, then: as §1

Assay [3] concerns the target T3, MST4 (Homo sapiens, UniProt Q9P289).
T3 construct: lines 1-140) and Reaction Biology
The method, then:
as §1

In assay [4] the target is T4, PIM2 (Homo sapiens, UniProt Q9P1W9).
T4 construct: lines 1-140) and Reaction Biology
T4 sequence (Q9P1W9 whole entry): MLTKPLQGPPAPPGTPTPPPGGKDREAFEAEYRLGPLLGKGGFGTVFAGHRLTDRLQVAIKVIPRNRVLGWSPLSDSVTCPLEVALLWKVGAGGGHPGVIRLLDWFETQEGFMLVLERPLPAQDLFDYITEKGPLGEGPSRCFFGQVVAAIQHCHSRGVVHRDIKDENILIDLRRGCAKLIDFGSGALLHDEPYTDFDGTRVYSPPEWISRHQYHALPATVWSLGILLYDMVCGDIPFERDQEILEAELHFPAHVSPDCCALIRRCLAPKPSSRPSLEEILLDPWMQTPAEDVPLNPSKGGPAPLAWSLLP
On the procedure:
as §1

Assay [5] deals with T5, TLK1 (Homo sapiens, UniProt Q9UKI8).
T5 construct: lines 1-140) and Reaction Biology
T5 sequence (Q9UKI8 1-766): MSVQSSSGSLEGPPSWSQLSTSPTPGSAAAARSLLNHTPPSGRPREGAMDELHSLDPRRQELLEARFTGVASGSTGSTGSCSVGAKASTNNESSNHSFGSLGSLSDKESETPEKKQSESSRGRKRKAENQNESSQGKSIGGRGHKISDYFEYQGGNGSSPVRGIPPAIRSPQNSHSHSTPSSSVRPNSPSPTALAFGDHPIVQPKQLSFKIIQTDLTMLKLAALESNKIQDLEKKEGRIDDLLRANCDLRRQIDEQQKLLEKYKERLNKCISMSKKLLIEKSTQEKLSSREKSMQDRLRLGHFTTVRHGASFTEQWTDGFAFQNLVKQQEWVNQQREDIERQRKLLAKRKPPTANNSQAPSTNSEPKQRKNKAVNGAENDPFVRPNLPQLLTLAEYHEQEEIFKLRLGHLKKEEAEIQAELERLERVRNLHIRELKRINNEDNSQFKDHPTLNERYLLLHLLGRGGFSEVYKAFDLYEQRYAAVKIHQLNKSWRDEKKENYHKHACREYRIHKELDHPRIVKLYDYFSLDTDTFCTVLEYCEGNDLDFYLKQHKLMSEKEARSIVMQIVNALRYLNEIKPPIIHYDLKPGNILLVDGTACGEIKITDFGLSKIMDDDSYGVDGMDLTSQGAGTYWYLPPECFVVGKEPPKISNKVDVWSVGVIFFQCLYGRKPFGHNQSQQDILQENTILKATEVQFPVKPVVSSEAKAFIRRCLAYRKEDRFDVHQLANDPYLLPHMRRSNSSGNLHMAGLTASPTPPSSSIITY
The method, then: as §1

Assay [6] deals with T6, ULK1 (Homo sapiens, UniProt O75385).
T6 construct: lines 1-140) and Reaction Biology
T6 sequence (O75385 1-1050): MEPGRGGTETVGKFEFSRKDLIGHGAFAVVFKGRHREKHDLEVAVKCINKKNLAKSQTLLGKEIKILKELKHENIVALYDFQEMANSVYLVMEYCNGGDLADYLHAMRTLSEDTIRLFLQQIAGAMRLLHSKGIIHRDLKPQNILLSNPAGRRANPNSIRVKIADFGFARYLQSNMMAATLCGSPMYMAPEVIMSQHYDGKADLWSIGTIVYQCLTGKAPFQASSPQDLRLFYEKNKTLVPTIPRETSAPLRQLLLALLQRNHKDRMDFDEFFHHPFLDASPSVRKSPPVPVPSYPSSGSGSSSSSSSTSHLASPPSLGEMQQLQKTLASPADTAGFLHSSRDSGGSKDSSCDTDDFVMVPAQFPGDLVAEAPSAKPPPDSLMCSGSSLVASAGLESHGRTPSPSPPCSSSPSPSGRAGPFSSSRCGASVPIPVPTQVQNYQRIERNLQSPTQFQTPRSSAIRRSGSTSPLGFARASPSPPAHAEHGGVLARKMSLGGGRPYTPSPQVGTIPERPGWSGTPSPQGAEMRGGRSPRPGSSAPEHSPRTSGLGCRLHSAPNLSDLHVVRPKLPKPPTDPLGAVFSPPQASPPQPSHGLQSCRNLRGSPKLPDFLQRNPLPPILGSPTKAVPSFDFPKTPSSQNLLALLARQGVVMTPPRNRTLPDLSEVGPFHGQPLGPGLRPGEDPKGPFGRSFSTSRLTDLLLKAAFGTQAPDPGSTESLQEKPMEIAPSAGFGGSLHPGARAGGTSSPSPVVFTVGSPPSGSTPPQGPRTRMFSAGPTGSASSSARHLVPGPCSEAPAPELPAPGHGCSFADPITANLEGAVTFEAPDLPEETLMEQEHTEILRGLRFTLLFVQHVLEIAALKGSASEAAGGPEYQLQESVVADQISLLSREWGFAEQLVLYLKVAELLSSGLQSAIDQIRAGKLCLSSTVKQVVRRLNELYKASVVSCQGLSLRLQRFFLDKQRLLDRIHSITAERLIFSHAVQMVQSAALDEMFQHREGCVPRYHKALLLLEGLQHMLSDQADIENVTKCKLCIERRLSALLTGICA
On the procedure: as §1

T3 sequence (Q9P289 whole entry): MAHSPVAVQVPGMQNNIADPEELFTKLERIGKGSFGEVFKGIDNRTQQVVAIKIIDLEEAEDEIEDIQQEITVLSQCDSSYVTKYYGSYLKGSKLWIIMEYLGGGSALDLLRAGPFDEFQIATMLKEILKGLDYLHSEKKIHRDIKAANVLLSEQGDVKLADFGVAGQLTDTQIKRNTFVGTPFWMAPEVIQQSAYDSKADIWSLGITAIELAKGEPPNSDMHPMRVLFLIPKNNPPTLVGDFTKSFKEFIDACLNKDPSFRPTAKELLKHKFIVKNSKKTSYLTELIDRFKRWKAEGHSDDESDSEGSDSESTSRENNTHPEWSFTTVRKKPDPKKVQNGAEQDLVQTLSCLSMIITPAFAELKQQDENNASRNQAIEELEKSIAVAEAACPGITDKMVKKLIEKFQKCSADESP

`O=C1Nc2ccc(I)cc2/C1=C/c1cc(Br)c(O)c(Br)c1` [GW5074]: the remaining activity at 1 µM in assay [1] came out at 94%; in assay [2] it was 74%; in assay [3], 89%; in assay [4], 10%; in assay [5] it was 86%; in assay [6], 97%.
For orientation: residual activity means the signal under treatment as a percentage of the control signal. On to `Nc1ncc(C(=O)NC2CN(C(=O)C3CC3)C2)c2ccc(-c3cccc(F)c3)nc12` [GNE-495], for which the residual activity in assay [1] (1 μM) is listed as 99%; in assay [2] (1 μM) it was 69%; in assay [3] (1 μM) it was 117%; in assay [4] (1 μM), 95%; in assay [5] (1 μM) it was 77%; in assay [6] (1 μM), 110%.
Regarding `Oc1ncnc2c1c(-c1ccccc1)cn2-c1ccccc1` [F1386-0303, 5,7-diphenyl-7H-pyrrolo[2,3-d]pyrimidin-4-ol], the remaining activity at 1 µM stood at 86% in assay [1]; 102% in assay [2]; 109% in assay [3]; 84% in assay [4]; 103% in assay [5]; 84% in assay [6].
As to `COCCOc1ccc(-c2cn(-c3ccccc3)c3nc[nH]c(=O)c23)cc1` [DMX-5804, 5-[4-(2-methoxy-ethoxy)-phenyl]-7-phenyl-3,7-dihydro-pyrrolo[2,3-d]pyrimidin-4-one], the remaining activity at 1 µM is 108% in assay [1]; 121% in assay [2]; 102% in assay [3]; 105% in assay [4]; 111% in assay [5]; 82% in assay [6].
Regarding `O=C1Cc2c([nH]c3ccc(Br)cc23)-c2ccccc2N1` [Kenpaullone], the remaining activity at 1 µM turned out to be 94% in assay [1]; 90% in assay [2]; 74% in assay [3]; 67% in assay [4]; 95% in assay [5]; 107% in assay [6].

(Values after PMC6458995, “MAP4K4 Inhibition Promotes Survival of Human Stem Cell-Derived Cardiomyocytes and Reduces Infarct Size In Vivo” (Cell Stem Cell, 2019).)
